# Experiments:
# GR [1] = biological target: T1, GR (Homo sapiens, UniProt P04150); assay: GR binding; settings: read-out: Half-maximal GR binding
# T1 sequence (P04150 1-777): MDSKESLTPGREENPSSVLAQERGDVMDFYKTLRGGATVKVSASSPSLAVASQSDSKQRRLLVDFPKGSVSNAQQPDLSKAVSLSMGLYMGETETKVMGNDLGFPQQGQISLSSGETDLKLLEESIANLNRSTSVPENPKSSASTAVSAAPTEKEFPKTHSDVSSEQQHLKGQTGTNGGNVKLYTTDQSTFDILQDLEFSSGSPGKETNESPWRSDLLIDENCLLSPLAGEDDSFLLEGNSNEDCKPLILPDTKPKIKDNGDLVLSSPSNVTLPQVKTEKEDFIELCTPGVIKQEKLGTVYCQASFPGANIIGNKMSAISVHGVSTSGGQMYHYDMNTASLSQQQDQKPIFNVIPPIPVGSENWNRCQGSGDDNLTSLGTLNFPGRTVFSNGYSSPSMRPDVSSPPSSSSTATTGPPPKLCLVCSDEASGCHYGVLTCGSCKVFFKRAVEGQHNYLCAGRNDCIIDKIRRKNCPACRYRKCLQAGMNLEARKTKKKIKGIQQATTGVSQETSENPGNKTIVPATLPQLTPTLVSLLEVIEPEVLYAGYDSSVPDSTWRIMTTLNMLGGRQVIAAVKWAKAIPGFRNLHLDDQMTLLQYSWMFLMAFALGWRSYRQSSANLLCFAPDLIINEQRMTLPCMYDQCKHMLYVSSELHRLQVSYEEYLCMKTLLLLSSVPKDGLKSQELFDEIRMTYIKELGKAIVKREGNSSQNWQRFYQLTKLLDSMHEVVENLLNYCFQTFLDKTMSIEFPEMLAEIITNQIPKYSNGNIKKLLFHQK
# healthy volunteers = assay: Phase I healthy volunteer studies (prednisone challenge); assay type: in vivo, human; settings: for NLR: healthy volunteers with normal cortisol levels
# Source text: (§1) GR is a broad regulator of immunosuppressive transcriptional programs, so we first assessed the transcriptional effects of prednisone in and/or relacorilant in whole blood. […] These three genes are known to play a role in suppressing the cytotoxic T-cell response.
# stimulated human PBMC’s = assay: Activation of stimulated human PBMCs (PHA or αCD3+IL-12) +/- cortisol or cortisol + relacorilant; assay type: cell-based; settings: for cytokines and chemokines (including IFNγ, IL-1β, IL-1α, IL-6): PHA or αCD3 stimulation; for cytokines and chemokines (including IFNγ, IL-1β, IL-1α, IL-6) / Expression of CD137 (aka 41-BB) on CD8+ cells: physiological cortisol; for CD3+ cell surface receptors: PHA stimulation; for inflammatory cytokines such as TNF-α: induced by stimulation; for inflammatory cytokines such as TNF-α / Expression of CD137 (aka 41-BB) on CD8+ cells: relacorilant in presence of cortisol; for CD8+ T-cell activation / pro-inflammatory cytokine secretion (TNFα, IFNγ): αCD3+IL-12; for CD8+ T-cell activation: P<0.001; for pro-inflammatory cytokine secretion (TNFα, IFNγ): TNFα P=0.006, IFNγ P<0.05
# Protocol: To understand the molecular consequences of GC activity on T-cell activation, the effects of cortisol and relacorilant were assessed on stimulated human PBMC’s. […] Expression of CD137 (aka 41-BB) on CD8+ cells was reduced by cortisol and rescued by relacorilant. […] Expression of CD137 (aka 41-BB) within CD8+ cells was reduced by cortisol and rescued by relacorilant. […] Thus, as shown also in FIG. 4, inflammatory cytokines such as TNF-α were induced by stimulation, suppressed by cortisol, and rescued by relacorilant. […] FIG. 6A and FIG. 6B show, following stimulation by phytohemagglutinin (PHA) (FIG. 6A) or αCD3 (FIG. 6B), suppression of cytokines and chemokines by cortisol and the restoration of cytokine/chemokine levels by relacorilant. (Supernatant IL-12 measurements were excluded from the analysis shown in FIG. 6B since the stimulation included recombinant IL-12.) Physiological levels of cortisol suppressed cytokines and chemokines, and this suppression was reversed by relacorilant.
# (§2) Methods: Immune cell abundance and GR expression were assessed by IHC and calculated based on The Cancer Genome Atlas (TCGA) data. Human PBMCs were stimulated with αCD3+IL-12 +/- cortisol or cortisol + relacorilant. EG7 tumor-bearing mice were treated with αPD1 (RMP1-14) ip (intraperitoneally) Q5D (every fifth day) +/- daily relacorilant (QD). Whole blood mRNA was measured via Nanostring, hematology was performed using standard complete blood count assays, and cytokines were assessed by immunoassays in study NCT02762981.
# human stimulated PBMCs = assay: Restoration of TNF-α production in stimulated PBMCs suppressed by GR agonists; assay type: cell-based; settings: PBMC, read-out: restoration of TNF-α production, half maximal effect
# [2] = test system: rat model of corticosterone-induced insulin resistance; assay: Rat model of corticosterone-induced insulin resistance; assay type: in vivo; settings: oral, doses giving systemic exposure similar to phase I studies
# GR [3] = biological target: T1, GR; assay: GR inverse agonism
# [4] = test system: patients with advanced solid tumors; assay: Phase I study of relacorilant+nab-paclitaxel in solid tumor patients (NCT02762981); settings: human, in vivo
# Protocol: as §1, §2
# [5] = test system: E.G7-OVA mouse lymphoma cells; assay: Short term (7-day) EG7 pharmacodynamic study in B6 CD45.1 mice; assay type: in vivo
# Protocol: A short term (7-day) EG7 pharmacodynamic study was conducted in female B6 CD45.1 mice to assess the effects of relacorilant+ αPD1 on T-cell proliferation and activation. Spleen and portions of tumor from B6 CD45.1 female mice subcutaneously inoculated with E.G7-OVA mouse lymphoma cells and treated with CORT125134 (30 mg/kg, administered p.o. once daily for 7 days) and RMP1-14 (10 mg/kg, administered i.p. on every fifth day for a total of two doses), alone and in combination, were analyzed via flow cytometry. Unlike the previous study, cell and cytokine analyses were synchronized and occurred before differences in tumor volume were detected (FIG. 14). Thus, in this study, changes in tumor volumes cannot influence the cytokine or T-cell measurements. There were no adverse effects of the treatments on clinical signs or body weight changes.
# Antigen specific T-cells are key mediators of the anti-tumor immune response. The EG7 model expresses the model antigen ovalbumin. Antigen specific T-cells can be quantified by measuring T-cells that recognize ovalbumin. Cells which bind T-cells markers (such as anti-CD3 and anti-CD8) and bind labeled ovalbumin tetramers are thus considered antigen specific T-cells. Antigen specific T-cells were increased by the combination of relacorilant + αPD1 in the spleen and tumor (FIG. 15). […]
# EG7 tumor cells [6] = assay: EG7 tumor model in WT mice, αPD1 (RMP1-14) +/- relacorilant; assay type: in vivo, mouse; settings: for TNFα levels in terminal sera: sera collected between days 11 and 21
# Protocol: The combination of PD1 antagonist antibody (RMP1-14) and relacorilant was assessed in the EG7 tumor model. Most reports have assessed αPD1 effects on EG7 cells in WT mice without added cortisol, so this more established model was used.
# as §2
# [7] = test system: patients with Cushing’s disease; assay: Phase II study in patients with Cushing’s disease; assay type: in vivo, human
# [8] = biological target: T2, progesterone receptor (PR) (Homo sapiens, UniProt P06401); assay: PR binding; settings: binding not observed at these concentrations
# T2 sequence (P06401 1-933): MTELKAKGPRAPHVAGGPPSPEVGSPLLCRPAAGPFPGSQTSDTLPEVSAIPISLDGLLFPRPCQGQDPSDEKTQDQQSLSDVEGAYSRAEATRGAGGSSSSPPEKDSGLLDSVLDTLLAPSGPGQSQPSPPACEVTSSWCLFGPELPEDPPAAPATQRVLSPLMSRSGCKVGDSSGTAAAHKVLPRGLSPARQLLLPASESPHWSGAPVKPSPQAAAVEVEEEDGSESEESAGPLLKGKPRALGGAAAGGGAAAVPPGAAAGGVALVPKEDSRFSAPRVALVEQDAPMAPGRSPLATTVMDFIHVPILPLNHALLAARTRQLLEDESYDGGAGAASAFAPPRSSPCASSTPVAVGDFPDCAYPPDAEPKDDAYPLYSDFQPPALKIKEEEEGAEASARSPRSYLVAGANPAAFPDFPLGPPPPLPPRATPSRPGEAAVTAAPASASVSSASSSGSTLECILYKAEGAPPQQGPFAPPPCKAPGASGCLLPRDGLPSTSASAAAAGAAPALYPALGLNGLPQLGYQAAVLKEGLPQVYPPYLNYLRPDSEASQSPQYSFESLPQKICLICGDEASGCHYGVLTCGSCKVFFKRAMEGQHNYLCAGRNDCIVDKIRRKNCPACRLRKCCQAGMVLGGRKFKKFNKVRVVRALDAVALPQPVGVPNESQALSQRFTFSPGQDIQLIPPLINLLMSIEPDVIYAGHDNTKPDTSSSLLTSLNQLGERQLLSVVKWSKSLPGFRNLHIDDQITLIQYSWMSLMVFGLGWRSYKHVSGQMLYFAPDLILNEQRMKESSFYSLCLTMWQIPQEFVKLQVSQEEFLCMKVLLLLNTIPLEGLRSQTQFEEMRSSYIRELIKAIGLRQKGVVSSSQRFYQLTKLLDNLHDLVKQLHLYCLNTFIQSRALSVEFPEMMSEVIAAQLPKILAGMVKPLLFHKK
# EG7 tumor cells [9] = assay: EG7 syngeneic model in OT-1/Rag-/- mice with cortisol in drinking water
# Protocol: The suppressive effects of cortisol on CD8+ cytotoxic T-cells, and the ability of relacorilant to promote T-cell activation, were assessed in the EG7 syngeneic mouse model. EG7 tumor cells express ovalbumin, and the model was studied both in WT or OT-1/Rag^-/- mice. The OT-1/Rag^-/- mice only have T-cells expressing a transgenic ovalbumin-specific TCR. […] The combination of PD1 antagonist antibody (RMP1-14) and relacorilant was assessed in the EG7 tumor model.
compound,measurement,setting,value
"Cn1cc(S(=O)(=O)N2CCC3=Cc4c(cnn4-c4ccc(F)cc4)C[C@]3(C(=O)c3cc(C(F)(F)F)ccn3)C2)cn1 [relacorilant, (R)-(1-(4-fluorophenyl)-6-((1-methyl-1H-pyrazol-4-yl)sulfonyl)-4,4a,5,6,7,8-hexahydro-1H-pyrazolo[3,4-g]isoquinolin-4a-yl)(4-(trifluoromethyl)pyridin-2-yl)methanone]",IC50,GR [1],0.15 nM
same,tolerability,healthy volunteers; healthy volunteers,demonstrated tolerability
same,NLR,healthy volunteers,does not affect NLR
same,GR agonist induction of FKBP5 mRNA in whole blood,healthy volunteers; prednisone challenge,reversed
same,GR agonist suppression of eosinophil abundance in whole blood,healthy volunteers; prednisone challenge,reversed
same,prednisone-induced increase in the NLR,healthy volunteers; relacorilant co-dosed with prednisone,reversed
same,"cytokines and chemokines (including IFNγ, IL-1β, IL-1α, IL-6)",stimulated human PBMC’s,reversed
same,CD3+ cell surface receptors,stimulated human PBMC’s,restoration
same,inflammatory cytokines such as TNF-α,stimulated human PBMC’s,rescued
same,Expression of CD137 (aka 41-BB) on CD8+ cells,stimulated human PBMC’s,rescued
same,CD8+ T-cell activation,stimulated human PBMC’s,restored
same,"pro-inflammatory cytokine secretion (TNFα, IFNγ)",stimulated human PBMC’s,restored
same,EC50,human stimulated PBMCs,9 nM
same,glucose and insulin,[2],normalized glucose and insulin
same,GR inverse agonism,GR [3],not observed
same,NLR in cancer patients with elevated baseline NLR,[4],lowers
same,PD1 expression in splenic CD8 T-cells,[5]; 7 days,sufficient to induce
same,PD-1+ as % CD8+ cells in spleens,[5]; vs Vehicle Control,significant (p≤0.05) increase
same,circulating IL-10,EG7 tumor cells [6]; P<0.002,decreased
same,αPD1 efficacy,EG7 tumor cells [6]; P=0.007,increased
same,effect on tumor growth,EG7 tumor cells [6]; WT mice without added cortisol,no significant effect
same,TNFα levels in terminal sera,EG7 tumor cells [6],increased
same,effects of excess cortisol on hypertension and insulin resistance,[7],demonstrated the ability to reverse
same,IC50,[8],> 1000 nM
cortisol,phenotypic effects of stimulation,"stimulated human PBMC’s; 400 nM cortisol, PHA or αCD3+IL-12",potently suppressed nearly every phenotypic effect of stimulation
same,"cytokines and chemokines (including IFNγ, IL-1β, IL-1α, IL-6)",stimulated human PBMC’s,suppressed
same,CD3+ cell surface receptors,stimulated human PBMC’s,suppression
same,inflammatory cytokines such as TNF-α,stimulated human PBMC’s,suppressed
same,Expression of CD137 (aka 41-BB) on CD8+ cells,stimulated human PBMC’s,reduced
same,CD8+ T-cell activation,stimulated human PBMC’s,inhibited
same,"pro-inflammatory cytokine secretion (TNFα, IFNγ)",stimulated human PBMC’s,inhibited
same,mice with measurable tumors by day 10,EG7 tumor cells [9]; OT-1/Rag-/- mice,All mice
same,tumor growth,EG7 tumor cells [9]; OT-1/Rag-/- mice,rapid tumor growth
same,histologically confirmed complete remissions,EG7 tumor cells [9]; OT-1/Rag-/- mice given cortisol +/- relacorilant,none
same,Premature deaths,"EG7 tumor cells [9]; OT-1/Rag-/- mice, 0/5 in controls",2/5
same,tumor growth on excess cortisol administration,EG7 tumor cells [6]; cortisol added to relacorilant treatment,restored tumor growth
same,tumor control or growth,EG7 tumor cells [6]; cortisol in drinking water of wild type (WT) mice,no effect on tumor control or growth
same,TNFα levels in terminal sera,EG7 tumor cells [6],suppressed
"C[C@]12C=CC(=O)C=C1CC[C@@H]1[C@@H]2C(=O)C[C@@]2(C)[C@H]1CC[C@]2(O)C(=O)CO [prednisone, reference compound]",transcriptional effect in whole blood,"healthy volunteers; 25 mg dose, 4 hours post dose",large transcriptional effect
same,NLR,healthy volunteers,rapid an acute increase
